Key:
avidin [1] = molecular target: T1, avidin (Gallus gallus, UniProt P02701); assay: isothermal titration calorimetry; co-crystal structure […] Å; assay type: binding
T1 construct: gene AVD; homotetramer by known biology (monomers A and C mentioned)

avidin [2] = molecular target: T1, avidin; assay: isothermal titration calorimetry; HABA assay; assay type: binding

T1 sequence (P02701 25-152): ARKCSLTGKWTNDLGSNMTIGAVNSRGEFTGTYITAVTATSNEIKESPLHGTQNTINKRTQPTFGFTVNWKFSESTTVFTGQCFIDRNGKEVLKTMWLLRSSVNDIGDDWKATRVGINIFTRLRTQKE

Kd (avidin [1]) [nM] | Kd (avidin [2]) [nM] | SMILES
225 |  | O=C(CCCC[C@@H]1SC[C@@H]2NC(=O)N[C@@H]21)NCCc1cc([N+](=O)[O-])ccc1O [compound 7]
 | 104 | CC(C)Cn1cnc2c(NC(=O)OCCOC(=O)Oc3ccc([N+](=O)[O-])cc3CCNC(=O)CCCC[C@@H]3SC[C@@H]4NC(=O)N[C@@H]43)nc3ccccc3c21 [compound 8, LDNPC (8)]

Source: publication PMC7702144, “A Ligand-Directed Nitrophenol Carbonate for Transient in situ Bioconjugation and Drug Delivery” (ChemMedChem, 2020)
